Test system: R223X stop codon in the mutated luciferase gene, ADXC8 luciferase reporter cell line
Assay: cells
Format: cell-based
Conditions: ADXC8 cells, 24 hours; for Emax / EC (100% of 200 uM G418 response): 24 h; for Emax: read-out: Fold Over Control, maximum fold response relative to 200 μM G418; for pC100%: negative logarithm of the concentration giving the same response as 200 μM G418; for Fold Over Control: maximum fold response relative to 200 μM G418; for EC (100% of 200 uM G418 response): read-out: pC100%, negative logarithm of the concentration giving the same response as 200 μM G418
Method: The read-through activity of compounds was assessed using the ADXC8 luciferase reporter cell line (generated as described in McElroy et al. PLoS Biology (2013), 11, e1001593). […] The amount of luciferase is measured by adding a lysis buffer containing luciferin substrate and detecting luminescence using the following protocol:
ADXC8 cells in assay media (DMEM+10% FBS) were seeded into 96-well tissue culture treated white plates (Greiner) to a density of 13,000 cells per well and incubated for 24 hours at 37° C. in an atmosphere of 5% CO2. […] Plates were incubated for a further 24 hours at 37° C. in an atmosphere of 5% CO2. Cells treated with 200 μM G418 (with 1% DMSO) were used as a positive control.
Cell viability and firefly luciferase activity were measured in the same assay wells. CellTiter-Fluor™ reagent was prepared as per manufacturer's instructions (Promega E7120) and 20 μl of 5× CellTiter-Fluor™ reagent was added to all wells, briefly mixed by orbital shaking (300-500 rpm for −30 seconds) and the plates incubated for 30-45 minutes at 37° C. in an atmosphere of 5% C02. Cell viability was measured by monitoring fluorescence on a CLARIOstar® plate reader (BMG Labtech). Cells containing 1% DMSO were used as a positive control and cells with 400 μM Doxorubicin were used as negative control to define 100 and 0% respectively. ONE-Glo™ luciferase assay buffer (Promega E7120) was prepared according to manufacturer's instructions and 100 μl of luciferase reagent was added to each well and the plate incubated at RT for 3 mins before measuring the luminescence on the CLARIOstar® plate reader (BMG Labtech). Cells treated with 200 μM G418 (with 1% DMSO) were used as a positive control and arbitrarily assigned a value of 100%. Cells treated with 1% DMSO were used as the negative control to define 0% response.
Concentration effect curves were analysed using non-linear regression using the CDD Vault from Collaborative Drug Discovery (Burlingame, CA). […] The bottom and top of the curves were constrained to 0 and the maximum measured response respectively. From the fitted curves, the software derived C100% values (the concentration giving the same response as 200 μM G418) for each compound. The negative logarithm of C100% is reported as pC100% (Table 1). In addition to pC100% values, the maximum fold response relative to 200 μM G418 (Fold over Control) was also captured (Table 1). A pC100% categorisation of ‘-’ in Table 1 represents examples in which a pC100% response was not reached when assayed at a concentration of 100 μM. A pC100% categorisation of ‘*’ in Table 1 represents examples in which a pC100% response was not reached when assayed at a concentration of 30 μM.

SMILES | Emax [%] | pC100% | Fold Over Control | EC (100% of 200 uM G418 response) [µM]
Cc1cc(C)c2c(N)nc(NC34CNCC3C4)nc2n1 (single isomer, unassigned) [Example 259, N^2-(3-azabicyclo[3.1.0]hexan-1-yl)-5,7-dimethylpyrido[2,3-d]pyrimidine-2,4-diamine] | 100 to 3000 | ++ (pC100% > 5.0 ≤ 6.0) |  | 
Cc1cc(C)c2c(N)nc(NC34CNCC3C4)nc2n1 (single isomer, unassigned) [Example 260, N^2-(3-azabicyclo[3.1.0]hexan-1-yl)-5,7-dimethylpyrido[2,3-d]pyrimidine-2,4-diamine] |  | +++ (pC100% > 6.0 ≤ 7.0) | ## (Fold over Ctrl > 1 ≤ 30) | 
CNc1nc(NC2CNCC2C(F)F)nc2nc(C)cc(C)c12 (single isomer, unassigned) [Example 429] |  | +++ (pC100% > 6.0 ≤ 7.0) |  | 
CNc1nc(NC2CNCC2C(F)F)nc2nc(C)cc(C)c12 (single isomer, unassigned) [Example 430] |  | ++ (pC100% > 5.0 ≤ 6.0) |  | 
CNc1nc(NC2CC3CC2CN3C)nc2nc(C)cc(C)c12 (single isomer, unassigned) [Example 431] | 100 to 3000 | + (pC100% > 4.0 ≤ 5.0) |  | 
CNc1nc(NC2CC3CC2CN3C)nc2nc(C)cc(C)c12 (single isomer, unassigned) [Example 432] |  | ++ (pC100% > 5.0 ≤ 6.0) | ## (Fold over Ctrl > 1 ≤ 30) | 
CNc1nc(NC2C3CCC2CN(C)C3)nc2nc(C)cc(C)c12 (single isomer, unassigned) [Example 433] | 100 to 3000 |  |  | 1 to 10
CNc1nc(NC2C3CCC2CN(C(C)C)C3)nc2nc(C)cc(C)c12 (single isomer, unassigned) [Example 435] | 100 to 3000 | ++ (pC100% > 5.0 ≤ 6.0) |  | 
CNc1nc(NC2C3CCC2CN(C(C)C)C3)nc2nc(C)cc(C)c12 (single isomer, unassigned) [Example 436] |  | + (pC100% > 4.0 ≤ 5.0) | ## (Fold over Ctrl > 1 ≤ 30) | 
CNc1nc(NC2CNCC2(F)F)nc2nc(C)cc(C)c12 (single isomer, unassigned) [Example 437] |  | + (pC100% > 4.0 ≤ 5.0) | ## (Fold over Ctrl > 1 ≤ 30) | 
CNc1nc(NC2CNCC2(F)F)nc2nc(C)cc(C)c12 (single isomer, unassigned) [Example 438] |  | * (pC100 ≤ 4.5) | # (Fold over Ctrl ≥ 0 ≤ 1) | 
CNc1nc(NC2(CO)CCNC2)nc2nc(C)cc(C)c12 (single isomer, unassigned) [Example 440] |  | * (pC100 ≤ 4.5) | # (Fold over Ctrl ≥ 0 ≤ 1) | 
CNc1nc(NC2(CO)CCNC2)nc2nc(C)cc(C)c12 (single isomer, unassigned) [Example 441] |  | ++ (pC100% > 5.0 ≤ 6.0) | ## (Fold over Ctrl > 1 ≤ 30) | 
CNc1nc(NC2CCN3CCCC3C2)nc2nc(C)cc(C)c12 (single isomer, unassigned) [Example 442] |  |  |  | 1 to 10
CNc1nc(NC2CCN3CCCC3C2)nc2nc(C)cc(C)c12 (single isomer, unassigned) [Example 443] | 100 to 3000 | ++ (pC100% > 5.0 ≤ 6.0) |  | 
CNc1nc(NC2C3CNC2C3)nc2nc(C)cc(C)c12 (single isomer, unassigned) [Example 445] |  | ++ (pC100% > 5.0 ≤ 6.0) | ## (Fold over Ctrl > 1 ≤ 30) | 
CNc1nc(NC2C3CNC2C3)nc2nc(C)cc(C)c12 (single isomer, unassigned) [Example 446] |  | ++ (pC100% > 5.0 ≤ 6.0) |  | 
CNc1nc(NC2C3CNC2C3)nc2nc(C)cc(C)c12 (single isomer, unassigned) [Example 447] |  | ++ (pC100% > 5.0 ≤ 6.0) | ## (Fold over Ctrl > 1 ≤ 30) | 

SMILES | Emax [%] | pC100% | Fold Over Control | EC (100% of 200 uM G418 response) [µM]
CNc1nc(NC2C3CNC2C3)nc2nc(C)cc(C)c12 (single isomer, unassigned) [Example 448] |  | * (pC100 ≤ 4.5) | # (Fold over Ctrl ≥ 0 ≤ 1) | 
CNc1nc(NC2CNCC2C#N)nc2nc(C)cc(C)c12 (single isomer, unassigned) [Example 450] |  | ++ (pC100% > 5.0 ≤ 6.0) | ## (Fold over Ctrl > 1 ≤ 30) | 
CNc1nc(NC2CNCC2C#N)nc2nc(C)cc(C)c12 (single isomer, unassigned) [Example 451] |  | * (pC100 ≤ 4.5) | # (Fold over Ctrl ≥ 0 ≤ 1) | 
CNc1nc(NC2CNCC2C#N)nc2nc(C)cc(C)c12 (single isomer, unassigned) [Example 452] |  | + (pC100% > 4.0 ≤ 5.0) | ## (Fold over Ctrl > 1 ≤ 30) | 
CNc1nc(NC2CNCC2C#N)nc2nc(C)cc(C)c12 (single isomer, unassigned) [Example 453] |  | + (pC100% > 4.0 ≤ 5.0) | ## (Fold over Ctrl > 1 ≤ 30) | 
Cc1cc(C)c2c(N)nc(NC3CCN(C(C)c4ccccc4)CC3)nc2n1 (single isomer, unassigned) [Example 502] | 100 to 3000 |  |  | 0.1 to 1
CN1CCC(Nc2nc(N)c3cccnc3n2)CC1 [Example 1, N^2-(1-methylpiperidin-4-yl)pyrido[2,3-d]pyrimidine-2,4-diamine] | 100 to 3000 |  |  | 10 to 100
Cc1ccnc2nc(NC3CCN(C)CC3)nc(N)c12 [Example 2, 5-methyl-N^2-(1-methylpiperidin-4-yl)pyrido[2,3-d]pyrimidine-2,4-diamine] | 100 to 3000 |  |  | 10 to 100
Cc1ccc2c(N)nc(NC3CCN(C)CC3)nc2n1 [Example 3, 7-methyl-N^2-(1-methylpiperidin-4-yl)pyrido[2,3-d]pyrimidine-2,4-diamine] |  |  |  | 1 to 10
Cc1cnc2nc(NC3CCN(C)CC3)nc(N)c2c1 [Example 4, 6-methyl-N^2-(1-methylpiperidin-4-yl)pyrido[2,3-d]pyrimidine-2,4-diamine] | 100 to 3000 |  |  | 10 to 100
Cc1cc(C)c2c(N)nc(NCCCN3CCOCC3)nc2n1 [Example 6, 5,7-dimethyl-N^2-(3-morpholinopropyl)pyrido[2,3-d]pyrimidine-2,4-diamine] | 100 to 3000 |  |  | 10 to 100
Cc1cc(C)c2c(N)nc(NCCCN3CCCCC3)nc2n1 [Example 7, 5,7-dimethyl-N^2-(3-(piperidin-1-yl)propyl)pyrido[2,3-d]pyrimidine-2,4-diamine] | 100 to 3000 |  |  | 1 to 10
Cc1cc(C)c2c(N)nc(NCCCN3CCS(=O)(=O)CC3)nc2n1 [Example 8, 4-(3-((4-amino-5,7-dimethylpyrido[2,3-d]pyrimidin-2-yl)amino)propyl)thiomorpholine 1,1-dioxide] | 0 to 100 |  |  | > 100
Cc1nc2nc(NC3CCN(C)CC3)nc(N)c2c2ccccc12 [Example 9, 6-methyl-N^3-(1-methylpiperidin-4-yl)pyrimido[4,5-c]isoquinoline-1,3-diamine] | 100 to 3000 |  |  | 1 to 10
Cc1c2ccccc2nc2nc(NC3CCN(C)CC3)nc(N)c12 [Example 10, 5-methyl-N^2-(1-methylpiperidin-4-yl)pyrimido[4,5-b]quinoline-2,4-diamine] | 100 to 3000 |  |  | 1 to 10
Cc1nc2nc(NC3CCN(C)CC3)nc(N)c2c2c1CCC2 [Example 11, 6-methyl-N^3-(1-methylpiperidin-4-yl)-8,9-dihydro-7H-cyclopenta[4,5]pyrido[2,3-d]pyrimidine-1,3-diamine] | 100 to 3000 |  |  | 0.1 to 1
Cc1cc(-c2ccccc2)c2c(N)nc(NC3CCN(C)CC3)nc2n1 [Example 13, 7-methyl-N^2-(1-methylpiperidin-4-yl)-5-phenylpyrido[2,3-d]pyrimidine-2,4-diamine] | 0 to 100 |  |  | > 31.6
Cc1cc(C)c2c(N)nc(N[C@@H]3CCN(C)C3)nc2n1 [Example 14, (R)-5,7-dimethyl-N^2-(1-methylpyrrolidin-3-yl)pyrido[2,3-d]pyrimidine-2,4-diamine] | 100 to 3000 |  |  | 1 to 10

— patent US20260234144A1 (TAY THERAPEUTICS LIMITED, priority 2023, published 2026)
